Experimental data as given in US9555029B2 (HIKMA PHARMACEUTICALS, priority 2013, dated 2017).
Read-outs that look alike come from different tables or passages of the source.

What was measured:
[1] = Colchicine pharmacokinetics coadministered with fluconazole; conditions: male, human, in vivo
Method: The inhibitor dosage form was an oral 200 mg tablet of Diflucan® (fluconazole, from Pfizer).
The fluconazole trial differed from the Example 2 protocol as follows.

[2] = clinical; conditions: human, plasma, oral
[3] = Incidence of adverse effects for colchicine coadministered with voriconazole
Method: Safety was evaluated through assessment of adverse events, standard laboratory evaluations, physical examination (including vital signs) and ECG. Safety was determined by descriptive statistics.

[4] = cited from earlier work; for Kel / T1/2el: arithmetic mean; for AUCT / Cmax: geometric mean
[5] = cited from earlier work
[6] = clinical; conditions: male, human, in vivo
Description: Subjects were included only if they were not older than 45 years (as opposed to no upper limit). Also, in inclusion criteria the lower threshold for the body mass index was 21.00 (as opposed to 18.00) kg/m^2.

[7] = of 12 subjects, colchicine + voriconazole
[8] = of 12 subjects, voriconazole study
[9] = Treatment-1: colchicine 0.6 mg alone (day 1, fasted), azithromycin study
[10] = Treatment-2: colchicine 0.6 mg (day 19) + azithromycin 500 mg day 15, 250 mg once daily days 16-19
[11] = of 12 subjects, cimetidine study
[12] = of 12 subjects, colchicine + cimetidine

## COc1cc2c(c(OC)c1OC)-c1ccc(OC)c(=O)cc1[C@@H](NC(C)=O)CC2 [Colchicine, (S)N-(5,6,7,9-tetrahydro-1,2,3,10-tetramethoxy-9-oxobenzo[alpha]heptalen-7-yl)acetamide]
[1]; AUCT, Treatment-2 (day 9): colchicine 0.6 mg + fluconazole 200 mg after double dose day 4, once daily days 5-8, fasted, mean
  AUC(0-t): 21.3 ng·h/mL
[1]; AUC∞ GEOMETRIC LSMEANS, Treatment-2: colchicine 0.6 mg + fluconazole
  AUC(0-inf): 24.4 ng·h/mL
[1]; AUC∞, Treatment-2 (day 9): colchicine 0.6 mg + fluconazole 200 mg after double dose day 4, once daily days 5-8, fasted, mean
  AUC(0-inf): 25.6 ng·h/mL
[1]; Cmax GEOMETRIC LSMEANS, Treatment-2: colchicine 0.6 mg + fluconazole
  Cmax: 2.05 ng/mL
[1]; Cmax, Treatment-2 (day 9): colchicine 0.6 mg + fluconazole 200 mg after double dose day 4, once daily days 5-8, fasted, mean
  Cmax: 2.3 ng/mL
[2]; both, AUCT, Treatment-2 (day 9): colchicine 0.6 mg + cimetidine 800 mg after double dose day 4, once daily days 5-8, fasted, mean
  AUC(0-t): 18.1 ng·h/mL
[2]; 0.6 mg
  CL/F: 465 mL/min
  Tmax: 1.25 h
  Vd/F: 1410 L
[2]; 0.6 mg, AUCT GEOMETRIC LSMEANS, Treatment-1: colchicine 0.6 mg alone, cimetidine study
  AUC(0-t): 19.3 ng·h/mL
[2]; 0.6 mg, AUCT, Treatment-1 (day 1): colchicine 0.6 mg alone, fasted, cimetidine study, mean
  AUC(0-t): 20.4 ng·h/mL
[2]; 0.6 mg, AUC∞ GEOMETRIC LSMEANS, Treatment-1: colchicine 0.6 mg alone, cimetidine study
  AUC(0-inf): 22.6 ng·h/mL
[2]; 0.6 mg, AUC∞, Treatment-1 (day 1): colchicine 0.6 mg alone, fasted, cimetidine study, mean
  AUC(0-inf): 24 ng·h/mL
[2]; 0.6 mg, Cmax GEOMETRIC LSMEANS, Treatment-1: colchicine 0.6 mg alone, cimetidine study
  Cmax: 2.78 ng/mL
[2]; 0.6 mg, Cmax, Treatment-1 (day 1): colchicine 0.6 mg alone, fasted, cimetidine study, mean
  Cmax: 3 ng/mL
[2]; AUCT GEOMETRIC LSMEANS, Treatment-2: colchicine 0.6 mg + cimetidine
  AUC(0-t): 16.7 ng·h/mL
[2]; AUC∞ GEOMETRIC LSMEANS, Treatment-2: colchicine 0.6 mg + cimetidine
  AUC(0-inf): 19.3 ng·h/mL
[2]; AUC∞, Treatment-2 (day 9): colchicine 0.6 mg + cimetidine 800 mg after double dose day 4, once daily days 5-8, fasted, mean
  AUC(0-inf): 21 ng·h/mL
[2]; Cmax GEOMETRIC LSMEANS, Treatment-2: colchicine 0.6 mg + cimetidine
  Cmax: 1.88 ng/mL
[2]; Cmax, Treatment-2 (day 9): colchicine 0.6 mg + cimetidine 800 mg after double dose day 4, once daily days 5-8, fasted, mean
  Cmax: 2.11 ng/mL
[3]; colchicine + voriconazole
  Total number of adverse events after Treatment-2: 2
[3]; [7]
  Number of subjects experiencing adverse events after Treatment-2: 1
  Percent of subjects experiencing adverse events after Treatment-2: 8.3%
[3]; [8]
  Number of subjects experiencing adverse events after Treatment-1: 7
  Percent of subjects experiencing adverse events after Treatment-1: 58.3%
[3]; voriconazole study
  Number of adverse events requiring medication after Treatment-1: None
  Number of serious adverse events or deaths: None
  Total number of adverse events after Treatment-1: 20
[4]; [9]
  Kel: 0.147 h⁻¹
  T1/2el: 6.07 h
  CLTOT/F: 50.24 L/h
  AUCT: 11,980 pg · h/mL
  Cmax: 2,740 pg/mL
[4]; [10]
  Kel: 0.1426 h⁻¹
  T1/2el: 6.71 h
  CLTOT/F: 35.01 L/h
  AUCT: 17,160 pg · h/mL
  Cmax: 3,050 pg/mL
Cimetidine study
  Number of adverse events requiring medication after Treatment-1: None
  Number of serious adverse events or deaths: None
  Total number of adverse events after Treatment-1: 11
Colchicine + cimetidine
  Total number of adverse events after Treatment-2: 2
[11]
  Number of subjects experiencing adverse events after Treatment-1: 7
  Percent of subjects experiencing adverse events after Treatment-1: 58.3%
[12]
  Number of subjects experiencing adverse events after Treatment-2: 1
  Percent of subjects experiencing adverse events after Treatment-2: 8.3%
[5]; in vivo
  Colchicine passing unchanged in the urine: up to 20%
[5]; oral, patients with normal organ function
  Time to peak concentrations in the blood: ≤ 2 h
[6]; 0.6 mg
  CL/F: 558 mL/min
  Tmax: 1.5 h
  Vd/F: 1410 L
[6]; 0.6 mg, AUCT GEOMETRIC LSMEANS, Treatment-1: colchicine 0.6 mg alone, propafenone study
  AUC(0-t): 16.2 ng·h/mL
[6]; 0.6 mg, AUCT, Treatment-1 (day 1): colchicine 0.6 mg alone, fasted, propafenone study, mean
  AUC(0-t): 16.6 ng·h/mL
[6]; 0.6 mg, AUC∞ GEOMETRIC LSMEANS, Treatment-1: colchicine 0.6 mg alone, propafenone study
  AUC(0-inf): 18.4 ng·h/mL
[6]; 0.6 mg, AUC∞, Treatment-1 (day 1): colchicine 0.6 mg alone, fasted, propafenone study, mean
  AUC(0-inf): 18.9 ng·h/mL
[6]; 0.6 mg, Cmax GEOMETRIC LSMEANS, Treatment-1: colchicine 0.6 mg alone, propafenone study
  Cmax: 2.05 ng/mL
[6]; 0.6 mg, Cmax, Treatment-1 (day 1): colchicine 0.6 mg alone, fasted, propafenone study, mean
  Cmax: 2.12 ng/mL
[6]; AUCT GEOMETRIC LSMEANS, Treatment-2: colchicine 0.6 mg + propafenone
  AUC(0-t): 16.4 ng·h/mL
[6]; AUCT, Treatment-2 (day 9): colchicine 0.6 mg + propafenone 225 mg after twice daily days 4-8, fasted, mean
  AUC(0-t): 16.8 ng·h/mL
[6]; AUC∞ GEOMETRIC LSMEANS, Treatment-2: colchicine 0.6 mg + propafenone
  AUC(0-inf): 18.4 ng·h/mL
[6]; AUC∞, Treatment-2 (day 9): colchicine 0.6 mg + propafenone 225 mg after twice daily days 4-8, fasted, mean
  AUC(0-inf): 18.9 ng·h/mL
[6]; Cmax GEOMETRIC LSMEANS, Treatment-2: colchicine 0.6 mg + propafenone
  Cmax: 2.18 ng/mL
[6]; Cmax, Treatment-2 (day 9): colchicine 0.6 mg + propafenone 225 mg after twice daily days 4-8, fasted, mean
  Cmax: 2.21 ng/mL
